Values quoted from earlier work in patent publication US20070275008A1, “Synergistic Diabetic Phyto-Nutraceutical Composition” (priority 2006, published 2007).

What was measured:
[1] = tested on: bacterial resistance mechanism against the berberine antimicrobial; settings: in vitro; in the presence of 5′-MHC
[2] = tested on: hepatic toxicity induced by paracetamol, prednisolone and bromobenzene; settings: mice; pre-treatment during ten days

COc1cc([C@H]2Oc3cc(-c4cc(=O)c5c(O)cc(O)cc5o4)cc(OC)c3O[C@@H]2CO)ccc1O (racemic) [5′-MHC, 5′-methoxyhydnocarpin]
accumulation of berberine in the cells [1]: strong increase of accumulation of berberine in the cells

COc1cc(/C=C/C(=O)[O-])ccc1O.[Na+] [sodium ferulate]
hepatic toxicity induced by paracetamol, prednisolone and bromobenzene [2]: improved the hepatic toxicity
